Source: patent US12521356B2, “Compositions and methods for treating pain, inflammation, infection, malaria, and sepsis” (Duke University, priority 2018, dated 2026)

Experiments:
GPR37 [1] = target: T1, GPR37 (Homo sapiens, UniProt O15354); assay: Ca2+ imaging (Fura-2AM) in HEK293 cells transfected with human GPR37 cDNA; type: cell-based; settings: GPR37-expressing HEK293 cells; for intracellular Ca2+ (iCa2+) increase: 3 min
T1 construct: host or cells: HEK293 flip-in cells
T1 sequence (O15354 27-613): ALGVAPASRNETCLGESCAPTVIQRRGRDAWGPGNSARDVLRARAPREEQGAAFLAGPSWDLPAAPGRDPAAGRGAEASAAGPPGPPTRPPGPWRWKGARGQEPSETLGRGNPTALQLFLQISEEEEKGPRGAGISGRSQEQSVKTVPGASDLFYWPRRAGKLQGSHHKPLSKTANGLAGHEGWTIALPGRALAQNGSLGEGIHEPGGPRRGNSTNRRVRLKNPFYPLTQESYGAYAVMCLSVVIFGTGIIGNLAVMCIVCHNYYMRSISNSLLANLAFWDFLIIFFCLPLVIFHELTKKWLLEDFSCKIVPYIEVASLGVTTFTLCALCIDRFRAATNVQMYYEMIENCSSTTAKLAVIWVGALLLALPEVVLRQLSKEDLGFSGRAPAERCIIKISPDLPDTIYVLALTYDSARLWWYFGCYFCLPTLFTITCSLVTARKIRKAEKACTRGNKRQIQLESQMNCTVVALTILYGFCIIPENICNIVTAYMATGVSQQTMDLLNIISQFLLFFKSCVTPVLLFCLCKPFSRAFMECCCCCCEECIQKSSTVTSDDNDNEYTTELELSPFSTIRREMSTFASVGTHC
Procedure: (§1) HEK cell culture and transfection. HEK293 flip-in cell line was purchased from Duke Cell Culture Facility. Cells were cultured in high glucose (4.5 g/L) Dulbecco's Modified Eagle's Medium containing 10% (v/v) fetal bovine serum (Gibco). Transfection (2 μg cDNA) was performed with Lonza electroporation (Lonza) at 70% confluency and the transfected cells were cultured in the same growth medium for 48 h before use. The hGPR37-V5 pLenti304 plasmids were obtained from DNASU (Tempe, AZ), and hGPR32, hChemR23 and hALX pcDNA3 plasmids were provided by Dr. Serhan from Harvard Medical School, Boston.
(§2) Calcium imaging. HEK 293 cells, with or without transfection of Gpr37, GPR32, ChemR23 or ALX1 cDNA, were loaded with 5 μM Fura-2AM (Invitrogen) for 1 hour and then were resuspended in normal external buffer (140 NaCl, 5 KCl, 2 CaCl2, 2 MgCl2, 10 HEPES, in mM, titrated to pH 7.4 with NaOH) or external Ca^2+-free buffer (140 NaCl, 2 MgCl2, 5 EGTA, 10 HEPES, in mM, titrated to pH 7.4 with NaOH). Peritoneal macrophages, collected from WT and Gpr37 KO mice, were loaded with 5 μM […] (Invitrogen) for 1 hour and then were resuspended in normal external buffer. Images of the HEK 293 cells and macrophages with the excitation wavelength of 340 nm and 380 nm were captured with a cooled Digital CMOS camera (ORCA-Flash 4.0, Hamamatsu Photonics K.K, Japan). The ratio of fluorescence intensity of the two wavelengths in each experiment was analyzed using MetaFluor (Molecular Devices). The Shutter speed and wavelength was controlled by Lambda DG-4 system (Sutter instrument Co., Novato, CA). Values from each of the experiments were normalized to the baseline ratio of 340/380 nm.
In order to investigate how GPR37 regulates intracellular signaling, we conducted Ca^2+ imaging in HEK293 cells that overexpress GPR37. […] Thus, we hypothesized TX14 and SPM may activate the same receptors and elicit similar intracellular responses. We transfected HEK293 cells with human GPR37 cDNA, loaded these cells with Ca^2+ dye Fura-2AM, and stimulated them with TX14 and various SPMs, using ionomycin (2 μM) as a positive control for Ca^2+ influx (FIG. 2A, FIG. 2B, FIG. 2C).

ChemR23 = target: T2, ChemR23 (Homo sapiens, UniProt Q99788); assay: Ca2+ imaging (Fura-2AM) in HEK293 cells transfected with ChemR23 cDNA; type: cell-based; settings: HEK293 cells expressing ChemR23; RvE1 100 nM
T2 construct: host or cells: HEK293 flip-in cells
T2 sequence (Q99788 1-373): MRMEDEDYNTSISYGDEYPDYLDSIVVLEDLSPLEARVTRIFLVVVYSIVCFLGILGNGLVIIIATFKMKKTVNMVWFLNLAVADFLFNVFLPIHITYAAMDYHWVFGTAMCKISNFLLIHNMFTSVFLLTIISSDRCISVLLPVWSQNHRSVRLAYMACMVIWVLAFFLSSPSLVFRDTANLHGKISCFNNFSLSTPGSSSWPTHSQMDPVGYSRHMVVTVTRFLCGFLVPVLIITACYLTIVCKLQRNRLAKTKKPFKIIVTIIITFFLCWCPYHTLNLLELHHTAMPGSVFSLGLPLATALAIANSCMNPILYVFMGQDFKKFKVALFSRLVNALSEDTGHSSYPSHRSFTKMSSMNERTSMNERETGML
Text: (§3) FIG. 10A-FIG. 10C. Characterization of intracellular Ca^2+ changes in HEK293 cells expressing ChemR23, GPR32, and ALX. Ca^2+ imaging with Fura-2AM indicator showing iCa^2+ levels in HEK293 cells transfected with ChemR23 (FIG. 10A), GPR32 (FIG. 10B), and ALX (FIG. 10C) cDNAs. Note that NPD1 fails to elicit iCa^2+ increase in HEK293 cells expressing ChemR23, GPR32, and ALX. […] ATP is included as a positive control. *P<0.05, compared with baseline n=44˜97 cells from 3 cultures. All the data are expressed as mean±s.e.m.
as §1
as §2, with “Values from each of the experiments were normalized to the baseline ratio of 340/380 nm.” left out

CHEM23 = target: T3, CHEM23 (Homo sapiens, UniProt Q99788); assay: Dot blot binding assay, positive control CHEM23
T3 sequence (Q99788 1-373): T2 sequence (Q99788 1-373)
Procedure: (§4) Lipids overlay assay. Lipids membrane coating and protein overlay assay was conducted as previously described (Ji R R, et al. Science 2016, 354, 572-577). Ethanol and chloroform soluble fatty acids were directly loaded on hydrophobic PVDF membrane (Bio-Rad). The fatty acids (NPD1, RvD1, RvE1, and DHA) coated membranes were dried and blocked with 1% BSA. The cell lysate and purified GPR37-V5 protein were incubated with the coating membrane for 2 h, and the binding was detected by anti-V5 tagged antibody (mouse, 1:1000, Thermo scientific, Catalog: 46-0705).
as §1
To determine whether NPD1 and TX14 bind to GPR37, we conducted dot blot assay by coating the blots with different concentrations of NPD1 and TX14 and included RvE1 as a control. […]

GPR37 [2] = target: T1, GPR37; assay: Dot blot binding assay with lysates of HEK293 cells with GPR37 cDNA or mock transfection; settings: for binding to GPR37-containing lysates: blots coated with different concentrations, lysates of HEK293 cells with GPR37 cDNA
Procedure: as §4, §1
To determine whether NPD1 and TX14 bind to GPR37, we conducted dot blot assay by coating the blots with different concentrations of NPD1 and TX14 and included RvE1 as a control. The blots were then incubated with cell lysates from HEK293 cells with GPR37 cDNA or Mock transfection.

GPR32 = target: T4, GPR32 (Homo sapiens, UniProt O75388); assay: Ca2+ imaging (Fura-2AM) in HEK293 cells transfected with GPR32 cDNA; type: cell-based; settings: HEK293 cells expressing GPR32; RvD1 100 nM
T4 construct: host or cells: HEK293 flip-in cells
T4 sequence (O75388 whole entry): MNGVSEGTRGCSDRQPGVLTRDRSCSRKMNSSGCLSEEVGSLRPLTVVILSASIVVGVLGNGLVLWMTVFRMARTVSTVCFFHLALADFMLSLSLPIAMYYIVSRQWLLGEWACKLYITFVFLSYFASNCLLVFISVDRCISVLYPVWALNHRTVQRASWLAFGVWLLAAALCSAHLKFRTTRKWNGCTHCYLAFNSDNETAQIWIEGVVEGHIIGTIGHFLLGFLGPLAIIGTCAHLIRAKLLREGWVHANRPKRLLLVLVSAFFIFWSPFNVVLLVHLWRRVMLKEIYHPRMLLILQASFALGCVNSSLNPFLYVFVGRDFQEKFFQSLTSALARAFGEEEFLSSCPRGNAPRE
Text: as §3, §1
as §2, with “Values from each of the experiments were normalized to the baseline ratio of 340/380 nm.” left out

Row | Compound | intracellular Ca2+ (iCa2+) increase (GPR37 [1]; 100 nM) | iCa2+ increase / Ca2+ response (ChemR23) | binding to CHEM23 (CHEM23) | binding to GPR37-containing lysates (GPR37 [2]) | iCa2+ increase / Ca2+ response (GPR32) | intracellular Ca2+ (iCa2+) increase (GPR37 [1]; 30 nM) | EC50 (GPR37 [1]; dose response, read-out: EC50 of iCa2+ increase) | binding affinity to GPR37, comparison (GPR37 [2]; dose-response curve analysis) | binding of lysates from mock transfection (GPR37-negative) (GPR37 [2]; mock-transfected HEK293 lysates)
1 | CC[C@@H](O)/C=C/C=C\C[C@@H](O)/C=C/C=C/C=C\[C@@H](O)CCCC(=O)O [RvE1] | failed to increase iCa^2+ | failed to evoke Ca^2+ responses | strong binding | not | – | – | – | – | –
2 | CC/C=C\C[C@H](O)/C=C/C=C\C=C\C=C\[C@@H](O)[C@@H](O)C/C=C\CCC(=O)O [RvD1] | failed to increase iCa^2+ | – | – | – | failed to evoke Ca^2+ responses | – | – | – | –
3 | CC/C=C\C[C@H](O)\C=C/C=C/C=C/[C@H](O)C/C=C\C/C=C\CCC(=O)O [NPD1, neuroprotectin D1] | – | failed to elicit iCa^2+ increase | – | dose-dependent binding | failed to elicit iCa^2+ increase | elicited significant increases | 26 nM | higher binding affinity to GPR37 than TX14 | did not show binding activities
